Tests used:
Assay in all cases: CYP activity inhibition in microsomes
Assay type in all cases: biochemical
Details in all cases: microsomes with NADPH; direct inhibition
CYP2D6 = CYP2D6 (Homo sapiens, UniProt P10635)
CYP2C9 = CYP2C9 (Homo sapiens, UniProt P11712)
CYP3A4 = CYP3A4 (Homo sapiens, UniProt P08684)
CYP1A2 = molecular target: T1, CYP1A2 (Homo sapiens, UniProt P05177)
T1 sequence (P05177 2-516): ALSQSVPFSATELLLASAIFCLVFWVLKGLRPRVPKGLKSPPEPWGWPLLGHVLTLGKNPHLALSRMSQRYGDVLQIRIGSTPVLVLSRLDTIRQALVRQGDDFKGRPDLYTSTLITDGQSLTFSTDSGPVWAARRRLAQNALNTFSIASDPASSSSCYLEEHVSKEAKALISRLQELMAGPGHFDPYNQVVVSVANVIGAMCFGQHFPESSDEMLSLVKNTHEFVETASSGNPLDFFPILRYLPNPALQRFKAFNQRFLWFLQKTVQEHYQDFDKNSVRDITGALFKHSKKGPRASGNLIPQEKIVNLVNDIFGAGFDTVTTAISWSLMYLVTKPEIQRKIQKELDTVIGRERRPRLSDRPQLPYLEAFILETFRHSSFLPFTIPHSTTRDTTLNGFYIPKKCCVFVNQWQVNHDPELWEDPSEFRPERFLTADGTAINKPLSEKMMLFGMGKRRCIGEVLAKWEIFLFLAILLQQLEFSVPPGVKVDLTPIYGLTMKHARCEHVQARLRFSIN

CYP2C19 = CYP2C19 (Homo sapiens, UniProt P33261)

Measured: IC50

Sequence of CYP2C19 (P33261 whole entry): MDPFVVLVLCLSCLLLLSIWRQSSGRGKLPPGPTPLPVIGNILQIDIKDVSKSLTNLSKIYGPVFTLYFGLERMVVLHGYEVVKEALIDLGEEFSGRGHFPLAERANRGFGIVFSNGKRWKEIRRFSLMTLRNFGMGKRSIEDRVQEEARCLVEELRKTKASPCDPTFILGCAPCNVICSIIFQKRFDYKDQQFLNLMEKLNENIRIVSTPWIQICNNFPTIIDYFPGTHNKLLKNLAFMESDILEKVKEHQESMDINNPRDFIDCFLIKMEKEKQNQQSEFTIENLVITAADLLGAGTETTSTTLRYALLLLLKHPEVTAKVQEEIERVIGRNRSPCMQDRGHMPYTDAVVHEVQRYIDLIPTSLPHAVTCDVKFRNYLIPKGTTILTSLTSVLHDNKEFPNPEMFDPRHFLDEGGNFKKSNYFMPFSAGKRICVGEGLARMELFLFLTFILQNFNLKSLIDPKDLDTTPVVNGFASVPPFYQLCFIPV
Sequence of CYP3A4 (P08684 2-503): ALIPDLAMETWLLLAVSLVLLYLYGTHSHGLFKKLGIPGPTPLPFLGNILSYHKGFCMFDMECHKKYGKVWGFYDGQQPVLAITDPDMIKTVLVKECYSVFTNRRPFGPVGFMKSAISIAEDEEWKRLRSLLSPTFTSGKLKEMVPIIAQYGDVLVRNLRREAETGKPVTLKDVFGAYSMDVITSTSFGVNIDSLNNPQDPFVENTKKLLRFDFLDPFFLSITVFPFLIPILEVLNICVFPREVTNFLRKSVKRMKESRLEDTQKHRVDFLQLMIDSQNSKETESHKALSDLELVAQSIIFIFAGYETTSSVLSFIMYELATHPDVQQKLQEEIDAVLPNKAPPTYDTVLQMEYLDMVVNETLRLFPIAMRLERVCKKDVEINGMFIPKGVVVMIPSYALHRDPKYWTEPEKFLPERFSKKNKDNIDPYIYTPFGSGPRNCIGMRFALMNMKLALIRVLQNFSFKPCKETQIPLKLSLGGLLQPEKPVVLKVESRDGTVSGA
Sequence of CYP2C9 (P11712 whole entry): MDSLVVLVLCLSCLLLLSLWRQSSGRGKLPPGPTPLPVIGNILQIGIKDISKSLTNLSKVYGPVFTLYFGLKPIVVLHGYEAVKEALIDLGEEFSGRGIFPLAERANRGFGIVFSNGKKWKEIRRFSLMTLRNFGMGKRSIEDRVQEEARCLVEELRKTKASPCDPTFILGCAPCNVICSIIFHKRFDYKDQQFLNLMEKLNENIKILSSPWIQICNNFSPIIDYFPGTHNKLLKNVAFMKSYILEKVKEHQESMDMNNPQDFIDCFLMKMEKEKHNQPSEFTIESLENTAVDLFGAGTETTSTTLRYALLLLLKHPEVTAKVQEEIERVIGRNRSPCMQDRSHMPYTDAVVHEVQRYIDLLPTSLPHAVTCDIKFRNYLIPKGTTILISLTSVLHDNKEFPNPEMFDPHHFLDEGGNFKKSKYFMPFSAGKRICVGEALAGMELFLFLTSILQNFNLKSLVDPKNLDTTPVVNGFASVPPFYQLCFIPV
Sequence of CYP2D6 (P10635 whole entry): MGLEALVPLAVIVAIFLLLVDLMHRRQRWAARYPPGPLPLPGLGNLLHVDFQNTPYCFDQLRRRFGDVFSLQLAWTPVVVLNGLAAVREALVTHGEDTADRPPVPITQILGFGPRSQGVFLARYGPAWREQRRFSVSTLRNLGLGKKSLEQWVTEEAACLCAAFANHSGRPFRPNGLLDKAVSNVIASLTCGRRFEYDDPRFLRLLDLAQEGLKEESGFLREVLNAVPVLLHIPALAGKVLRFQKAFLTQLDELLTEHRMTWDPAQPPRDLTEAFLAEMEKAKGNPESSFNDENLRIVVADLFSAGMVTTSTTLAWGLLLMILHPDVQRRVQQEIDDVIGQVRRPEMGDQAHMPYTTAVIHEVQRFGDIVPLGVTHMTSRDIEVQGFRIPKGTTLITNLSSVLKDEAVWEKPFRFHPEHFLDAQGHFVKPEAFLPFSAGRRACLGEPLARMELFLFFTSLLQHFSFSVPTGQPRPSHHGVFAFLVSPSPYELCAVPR

Cc1cccc(OC2CCN(Cc3cc(=O)[nH]c(=O)[nH]3)CC2)c1C [GSK2556286]
> 25 µM: CYP2D6 | CYP2C9 | CYP3A4 | CYP1A2 | CYP2C19
